{"source": "patent US7666901B2", "about": "“Analogs of 17-hydroxywortmannin as PI3K inhibitors” (Wyeth, priority 2004, dated 2010)", "key": {"[1]": {"molecular_target": "T1, Human TOR (Homo sapiens, UniProt P42345)", "T1 construct": "FLAG", "assay": "Human TOR (mTOR) kinase assay, DELFIA format", "format": "biochemical", "method_in_brief": "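Purified FLAG-TOR (800 ng/mL) phosphorylates His6-S6K ([…]) with […] ATP in Hepes pH 7.4 buffer containing MnCl2, 2 h at room temperature. Phospho-Thr389 S6K detected by DELFIA using Europium-labelled anti-P(T389)-p70S6K antibody; enzyme inhibition calculated from signal.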"}, "[2]": {"test_system": "HCT116 colon tumor cells", "assay": "Tumor cell growth assay, combination with MEK inhibitors, HCT116", "format": "cell-based, human", "conditions": "MEK inhibitor at low constant dose", "description": "(§1) Human tumor cell are all obtained from ATCC, and are cultured using standard cell culture methods. Cells are plated in 96-well culture plates at 1000 to 3000 cells per well. One day following plating, cells are treated with various doses of PI3K inhibitor Compound 4 or Compound 5 alone or with a low constant dose of MEK inhibitor 2-(2-chloro-4-iodoanilino)-N-(cycloprorylmethoxy-3,4-difluobenzamide) (1 μg/ml) or UO126 (5 μg/ml). UO126 is also known as 1,4-diamino-2,3-dicyano-1,4-bis[2-aminophenylthio]butadiene. In some experiments, cells are treated alone with various doses of the MEK inhibitor (2-(2-chloro-4-iodoanilino)-N-(cycloprorylmethoxy-3,4-difluobenzamide)), or HER2/neu inhibitor HKI-272, or mTOR inhibitor CCI-779, or with a low constant dose of Compound 4 (0.1 μg/ml). […] Three days after drug treatment, viable cell densities are determined by metabolic conversion (by viable cells) of the dye MTS, an established cell proliferation assay. […] The MTS assay results are read in a 96-well plate reader by measuring absorbance at 490 nm. The effect of each treatment is calculated as percent of control growth relative to the vehicle DMSO-treated cells grown in the same culture plate. […]"}, "[3]": {"test_system": "panel of seven colon tumor lines", "assay": "Tumor cell growth assay, combination with MEK inhibitor, colon panel", "format": "cell-based, human", "description": "as §1"}, "[4]": {"test_system": "non-small cell lung cancer (NSCLC) cell lines", "assay": "Tumor cell growth assay, combination with MEK inhibitor, NSCLC", "format": "cell-based, human", "description": "as §1"}, "[5]": {"test_system": "MDA231 breast tumor cells", "assay": "Tumor cell growth assay, combination with MEK inhibitor, MDA231", "format": "cell-based, human", "description": "as §1"}, "[6]": {"test_system": "DU145 prostrate tumor cells", "assay": "Tumor cell growth assay, combination with MEK inhibitor, DU145", "format": "cell-based, human", "description": "as §1"}, "[7]": {"test_system": "HER2/Neu-overexpressing MDA361-DYT2 breast tumor cells", "assay": "Tumor cell growth assay, HKI-272 and combination, MDA361-DYT2", "format": "cell-based, human", "conditions": "compound 4 at 0.1 μg/ml; MDA361-DYT2", "description": "as §1"}, "[8]": {"test_system": "MDA-MB-231 breast cells", "assay": "Tumor cell growth assay, combination with CCI-779, MDA-MB-231", "format": "cell-based, human", "conditions": "compound 4 at 0.1 μg/ml", "description": "as §1"}, "[9]": {"test_system": "colon tumor cell lines", "assay": "Tumor cell growth assay, combination with CCI-779, colon lines", "format": "cell-based, human", "conditions": "compound 4 at 0.1 μg/ml", "description": "as §1"}, "[10]": {"test_system": "PTEN-negative breast tumor cell lines", "assay": "Tumor cell growth assay, combination with CCI-779, PTEN-negative breast lines", "format": "cell-based, human", "conditions": "compound 4 at 0.1 μg/ml", "description": "as §1"}}}
{"compound": "COC[C@H]1OC(=O)/C(=C/N(CCO)C(C)(C)C)C2=C(O)C(=O)C3=C([C@H](OC(C)=O)C[C@@]4(C)C3CC[C@@H]4O)[C@]21C", "note": "(stereo partly drawn) [Compound 4, (1E,4S,4aR,5R,6aS,7S)-1-{[tert-butyl(2-hydroxyethyl)amino]methylene}-7,11-dihydroxy-4-(methoxymethyl)-4a,6a-dimethyl-2,10-dioxo-1,2,4,4a,5,6,6a,7,8,9,9a,10-dodecahydroindeno[4,5-h]isochromen-5-yl acetate]", "values": [{"measurement": "TOR IC50", "setting": "[1]; Table 1", "value": 16, "unit": "µg/mL"}, {"measurement": "TOR IC50", "setting": "[1]; Table 2", "value": ">10", "unit": "µg/mL"}, {"measurement": "growth inhibition in combination with MEK inhibitors", "setting": "[2]", "value": "synergistically inhibited growth"}, {"measurement": "growth inhibition in combination with MEK inhibitor 2-(2-chloro-4-iodoanilino)-N-(cycloprorylmethoxy-3,4-difluobenzamide)", "setting": "[3]", "value": "synergistic growth inhibition"}, {"measurement": "growth inhibition in combination with MEK inhibitor 2-(2-chloro-4-iodoanilino)-N-(cycloprorylmethoxy-3,4-difluobenzamide)", "setting": "[4]", "value": "synergistic growth inhibition"}, {"measurement": "growth inhibition in combination with MEK inhibitor 2-(2-chloro-4-iodoanilino)-N-(cycloprorylmethoxy-3,4-difluobenzamide)", "setting": "[5]", "value": "synergistic growth inhibition"}, {"measurement": "growth inhibition in combination with MEK inhibitor 2-(2-chloro-4-iodoanilino)-N-(cycloprorylmethoxy-3,4-difluobenzamide)", "setting": "[6]", "value": "synergistic growth inhibition"}, {"measurement": "growth inhibition in combination with HER2/neu inhibitor HKI-272", "setting": "[7]", "value": "synergistically inhibited growth"}, {"measurement": "growth inhibition in combination with mTOR inhibitor CCI-779", "setting": "[8]", "value": "synergistically inhibited growth"}, {"measurement": "growth inhibition in combination with mTOR inhibitor CCI-779", "setting": "[9]", "value": "synergistically inhibited growth"}, {"measurement": "growth inhibition in combination with mTOR inhibitor CCI-779", "setting": "[10]", "value": "additive growth inhibition"}, {"measurement": "growth inhibition in combination with mTOR inhibitor CCI-779", "setting": "[10]; listed as compound 4", "value": "synergistically inhibited growth"}]}
